Reference: patent publication US10933056B2, “3-(1H-pyrazol-4-yl)pyridine allosteric modulators of the M4 muscarinic acetylcholine receptor” (Merck Sharp & Dohme Corp., priority 2015, dated 2021)

molecular target: T1, human M4 muscarinic acetylcholine receptor (Homo sapiens, UniProt P08173); assay: human FLIPR-based M4 PAM assay (calcium mobilization in CHO-K1 cells with human M4 receptor and Gαqi5); format: cell-based; details: inflection point of dose response curve, acetylcholine at 20% of maximum response, FLIPR Tetra, read-out: M4 PAM IP
T1 construct: expressed in transfected cells; host or cells: CHO-K1
T1 sequence (P08173 1-479): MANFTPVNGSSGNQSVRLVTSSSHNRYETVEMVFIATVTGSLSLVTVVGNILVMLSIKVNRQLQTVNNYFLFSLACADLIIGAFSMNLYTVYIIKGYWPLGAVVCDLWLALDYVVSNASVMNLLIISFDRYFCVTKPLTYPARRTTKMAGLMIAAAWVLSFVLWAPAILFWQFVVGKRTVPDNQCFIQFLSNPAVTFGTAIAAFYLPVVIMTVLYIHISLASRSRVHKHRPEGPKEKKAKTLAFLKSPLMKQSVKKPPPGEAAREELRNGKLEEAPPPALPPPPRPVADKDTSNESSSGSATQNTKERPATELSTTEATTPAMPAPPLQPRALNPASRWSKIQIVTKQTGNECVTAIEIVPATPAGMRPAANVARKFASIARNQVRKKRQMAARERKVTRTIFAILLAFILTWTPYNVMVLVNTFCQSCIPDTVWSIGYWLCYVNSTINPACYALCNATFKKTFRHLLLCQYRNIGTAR
Method in brief: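 CHO-K1 cells stably expressing human M4 and chimeric Gαqi5 were dye-loaded ~1 h at 37° C. Test compound was added with fluorescence recorded 4 min, then acetylcholine at EC20 (sometimes a further EC70 addition) with reading 3.5 min. Value is the inflection point of a 4-parameter logistic fit.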

Row | Structure (SMILES) | EC50 [nM]
1 | CN1Cc2ccc(-c3nc(C#N)c(Cl)cc3-c3cnn(CC4(C)CCCC4)c3)cc2C1=O [Example 125, 3-Chloro-6-(2-methyl-3-oxoisoindolin-5-yl)-5-(1-((1-methylcyclopentyl)methyl)-1H-pyrazol-4-yl)picolinonitrile] | 26
2 | Cc1cc(F)c(-c2cnn(CC3(C)CCCC3)c2)c(-c2ccc3c(c2)C(=O)N(C)C3)n1 [Example 126, 6-(4-fluoro-6-methyl-3-(1-((1-methylcyclopentyl)methyl)-1H-pyrazol-4-yl)pyridin-2-yl)-2-methylisoindolin-1-one] | 71
3 | CN1Cc2ccc(-c3nc(F)c(F)cc3-c3cnn(CC4(C)CCCC4)c3)cc2C1=O [Example 127, 6-(5,6-Difluoro-3-(1-((1-methylcyclopentyl)methyl)-1H-pyrazol-4-yl)pyridin-2-yl)-2-methylisoindolin-1-one] | 90
4 | C#Cc1ccc(-c2cnn(CC3(C)CCCC3)c2)c(-c2cnc3c(c2)C(=O)N(CC2CC2)C3)n1 [Example 128, 6-(Cyclopropylmethyl)-3-(6-ethynyl-3-(1-((1-methylcyclopentyl)methyl)-1H-pyrazol-4-yl)pyridin-2-yl)-6,7-dihydro-5H-pyrrolo[3,4-b]pyridin-5-one] | 62
5 | CC1(Cn2cc(-c3ccc(C#N)nc3-c3cnc4c(c3)C(=O)N(CCO)C4)cn2)CCCC1 [Example 129, 6-(6-(2-Hydroxyethyl)-5-oxo-6,7-dihydro-5H-pyrrolo[3,4-b]pyridin-3-yl)-5-(1-((1-methylcyclopentyl)methyl)-1H-pyrazol-4-yl)picolinonitrile] | 39
